Patent US10472341B2, “Bicyclic tetrahydrothiazepine derivatives useful for the treatment of neoplastic and/or infectious diseases” (APEIRON BIOLOGICS AG, priority 2015, dated 2019)

Columns and labels:
CD8 T cells [1] = test: Reactivity of isolated CFSE-labeled CD8 T cells to TCR stimulation (anti-CD3/anti-CD28): cytokines, proliferation, CD25; assay type: cell-based, human; conditions: for CD25 expression [% positive cells] Average / Cell Proliferation [Cell divisions/cell] Average / IFN-gamma production [ng/ml] Average / IL-2 production [ng/ml] Average / TNF-alpha production [ng/ml] Average: anti-CD3/anti-CD28
Procedure: • Buffy coat content was transferred to sterile plastic bottle and filled up to 480 ml with PBS, and distributed equally to 16×50 ml tubes (30 ml/tube) • Underlayed with ˜11 ml Lymphoprep and centrifuged 20 min (2200 rpm) • The interphase containing lymphocytes was taken off with transfer pipette, cells were washed twice with PBS and pooled to one tube to determine cell count (Coulter Diff ACT) Isolation of Immune Cell Subfractions from PBMCs by MACS • PBMCs were resuspended in MACS buffer (80 μl MACS-buffer/10^7 cells) and cells were isolated with Auto-MACS device using respective kits following manufacturer's recommendations TCR Stimulation and Measurement of T Cell Activation
Isolated T cells were plated in Xvivo medium at 1.5*10 ^5 cells per in 96 well culture plates and TCR-stimulated with anti-CD3/28 mAbs in the presence of compound as indicated. Cytokine production was determined at 24 h or 48 h following TCR stimulation in cell culture supernatants using commercially available ELISA kits (BD and eBioscience) as recommended by the manufacturer. T cell proliferation and CD25 expression (CD25-PC5 reagent purchased from Beckman Coulter) was determined by flow cytometry (Beckman-Coulter FC500) and analysed with Kaluza Software. For measurement of CD69 expression, isolated CD4 and CD8 T cells were plated in Xvivo medium at […] per in 96 well culture plates and TCR-stimulated with anti-CD3/28 mAbs in the presence of compound. CD69 expression was determined at 24 h following TCR stimulation by flow cytometry (CD4eF450, CD8APCeF780 and CD69-PC7 reagent purchased from eBioscience) and analysed with Kaluza Software.
Isolated CD8 T cells were CFSE-labeled and stimulated with anti-CD3 and anti-CD28 antibodies.

CD8 T cells [2] = test: CD69 expression on aCD3/aCD28 stimulated isolated human CD8 T cells (flow cytometry); assay type: cell-based; conditions: T-cell, 24 h after TCR stimulation, read-out: Activity Class CD69 (CD8)
Summary of the method: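 Isolated CD4 and CD8 T cells plated at 80000 cells per well in Xvivo medium and stimulated with anti-CD3/28 mAbs in presence of compound. CD69 expression measured by flow cytometry 24 h after TCR stimulation.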

OT-II cells = test: OT-II transfer model, intravenous administration; assay type: in vivo, mouse; conditions: LPS & OVA
Procedure: • Single cell suspension of splenocytes was prepared from the spleen by rinsing cells through a sterile 70 μm filter with PBS • Cells were collected by centrifugation in an 15 ml tube, the cell pellet was resuspended in 1 ml of Erylyse buffer and incubated at room temperature for 5 minutes, tubes were filled up with PBS and cells were washed twice • Cells were counted and resuspended in the desired buffer volume for MACS-enrichment or flow cytometric analysis Isolation of CD4 T Cells from OT-II Transgenic Mice • Splenocytes were resuspended in MACS buffer ([…] MACS-buffer/10^7 cells) • CD4 T cells were isolated using the CD4 T cell isolation kit (Miltenyi) with LS-columns following manufacturer's recommendations CFSE-Labeling of T Cells • Cells were resuspended in PBS with 0.1% BSA at 1×10^7 cells/ml and CFSE-solution was added to final concentration of 2.5 μM CFSE • Incubated for 10 min at 37° C., swung each 2 min • Same volume of FCS added and incubated for 5 min at room temperature • Cells were washed twice with RMPI-10% FCS medium • Cells were counted and resuspended in PBS or medium at desired concentration OT-II Transfer • Day 0: OT-II cells were transferred in PBS (3*10^6. Cells in 100 μl PBS) by retro-orbital injection • Day 1: WT mice got OVA vaccinated (subcut. flank, 10 μg LPS, 2 μg OVA per animal) • 2 & 4 h later compounds were administrated; for oral dosing compound was used as suspension (0.5% methylcellulose in water), for i.v. dosing compound was solubilized in DMSO and diluted with PBS • Day 2: compounds were administrated twice in the morning (with 2 h time interval) • Day 3: Mice were sacrificed & splenocytes were isolated • T cell proliferation & phenotype was determined by flow cytometry • Flow cytometry-Staining (all Abs purchased from eBioscience and used as recommended by the manufacturer): B220-eF450, CD4-PE, CD25PerCPCy5.5, CD69-PC7, TCRVa2-APC, CD8-AF700, CD3-eF780; CFSE; 7-AAD • Acquisition on Beckman-Coulter Gallios, Analysis using Kaluza Software OT-I Transfer to Mice with B16-F10-OVA Tumors • Day 0: 100000 B16-F10-OVA tumor cells were inoculated subcutaneously at the flank of WT-mice • Day 7: OT-I cells were transferred in PBS (3*10^6. […]

In the case of `CCCCNC(=O)c1ccc2c(c1)N(Cc1ccc(OC(F)(F)F)cc1)C(=O)[C@@H](N)CS2(=O)=O.Cl` [Example 67, (3R)-3-amino-N-butyl-1,1,4-trioxo-5-{[4-(trifluoromethoxy)phenyl]methyl}-2,3,4,5-tetrahydro-1λ^6,5-benzothiazepine-7-carboxamide hydrochloride], the “CD25 expression [% positive cells] Average” value (CD8 T cells [1]; 0.05 μM) is reported as 61.07 % positive cells, the “Cell Proliferation [Cell divisions/cell] Average” value (CD8 T cells [1]; 0.05 μM) is reported as 1.57 Cell divisions/cell and the “IFN-gamma production [ng/ml] Average” value (CD8 T cells [1]; 0.05 μM) is reported as 0.14 ng/mL. For the same molecule, the “IL-2 production [ng/ml] Average” value (CD8 T cells [1]; 0.05 μM) was 1.17 ng/mL, the “TNF-alpha production [ng/ml] Average” value (CD8 T cells [1]; 0.05 μM) was 1.09 ng/mL and the “CD25 expression [% positive cells] Average” value (CD8 T cells [1]; 0.1 μM) was 64.24 % positive cells. For the same molecule, the “Cell Proliferation [Cell divisions/cell] Average” value (CD8 T cells [1]; 0.1 μM) was 1.72 Cell divisions/cell, the “IFN-gamma production [ng/ml] Average” value (CD8 T cells [1]; 0.1 μM) was 0.22 ng/mL and the “IL-2 production [ng/ml] Average” value (CD8 T cells [1]; 0.1 μM) was 2.32 ng/mL. For the same molecule, the “TNF-alpha production [ng/ml] Average” value (CD8 T cells [1]; 0.1 μM) was 1.55 ng/mL, the “CD25 expression [% positive cells] Average” value (CD8 T cells [1]; 0.25 μM) was 68.81 % positive cells and the “Cell Proliferation [Cell divisions/cell] Average” value (CD8 T cells [1]; 0.25 μM) was 1.84 Cell divisions/cell. For the same molecule, the “IFN-gamma production [ng/ml] Average” value (CD8 T cells [1]; 0.25 μM) was 0.31 ng/mL, the “IL-2 production [ng/ml] Average” value (CD8 T cells [1]; 0.25 μM) was 4.01 ng/mL and the “TNF-alpha production [ng/ml] Average” value (CD8 T cells [1]; 0.25 μM) was 2.16 ng/mL. For the same molecule, the “CD25 expression [% positive cells] Average” value (CD8 T cells [1]; 0.5 μM) was 67.89 % positive cells, the “Cell Proliferation [Cell divisions/cell] Average” value (CD8 T cells [1]; 0.5 μM) was 1.88 Cell divisions/cell and the “IFN-gamma production [ng/ml] Average” value (CD8 T cells [1]; 0.5 μM) was 0.43 ng/mL. The “IL-2 production [ng/ml] Average” value (CD8 T cells [1]; 0.5 μM) was 7.64 ng/mL, the “TNF-alpha production [ng/ml] Average” value (CD8 T cells [1]; 0.5 μM) was 3.13 ng/mL and the “CD25 expression [% positive cells] Average” value (CD8 T cells [1]; 1 μM) was 71.00 % positive cells. For the same molecule, the “Cell Proliferation [Cell divisions/cell] Average” value (CD8 T cells [1]; 1 μM) was 1.94 Cell divisions/cell, the “IFN-gamma production [ng/ml] Average” value (CD8 T cells [1]; 1 μM) was 0.61 ng/mL and the “IL-2 production [ng/ml] Average” value (CD8 T cells [1]; 1 μM) was 11.30 ng/mL. For the same molecule, the “TNF-alpha production [ng/ml] Average” value (CD8 T cells [1]; 1 μM) was 4.04 ng/mL, the “CD25 expression [% positive cells] Average” value (CD8 T cells [1]; 2.5 μM) was 71.35 % positive cells and the “Cell Proliferation [Cell divisions/cell] Average” value (CD8 T cells [1]; 2.5 μM) was 1.93 Cell divisions/cell. For the same molecule, the “IFN-gamma production [ng/ml] Average” value (CD8 T cells [1]; 2.5 μM) was 0.79 ng/mL, the “IL-2 production [ng/ml] Average” value (CD8 T cells [1]; 2.5 μM) was 16.77 ng/mL and the “TNF-alpha production [ng/ml] Average” value (CD8 T cells [1]; 2.5 μM) was 5.37 ng/mL. For the same molecule, the “CD25 expression [% positive cells] Average” value (CD8 T cells [1]; 5 μM) was 71.76 % positive cells, the “Cell Proliferation [Cell divisions/cell] Average” value (CD8 T cells [1]; 5 μM) was 1.91 Cell divisions/cell and the “IFN-gamma production [ng/ml] Average” value (CD8 T cells [1]; 5 μM) was 0.91 ng/mL. The “IL-2 production [ng/ml] Average” value (CD8 T cells [1]; 5 μM) was 17.30 ng/mL, the “TNF-alpha production [ng/ml] Average” value (CD8 T cells [1]; 5 μM) was 6.68 ng/mL and the “CD25 expression [% positive cells] Average” value (CD8 T cells [1]; 10 μM) was 71.90 % positive cells. For the same molecule, the “Cell Proliferation [Cell divisions/cell] Average” value (CD8 T cells [1]; 10 μM) was 1.83 Cell divisions/cell, the “IFN-gamma production [ng/ml] Average” value (CD8 T cells [1]; 10 μM) was 1.15 ng/mL and the “IL-2 production [ng/ml] Average” value (CD8 T cells [1]; 10 μM) was 19.63 ng/mL. For the same molecule, the “TNF-alpha production [ng/ml] Average” value (CD8 T cells [1]; 10 μM) was 7.50 ng/mL, the “CD25 expression [% positive cells] Average” value (CD8 T cells [1]; 20 μM) was 69.70 % positive cells and the “Cell Proliferation [Cell divisions/cell] Average” value (CD8 T cells [1]; 20 μM) was 1.68 Cell divisions/cell. For the same molecule, the “IFN-gamma production [ng/ml] Average” value (CD8 T cells [1]; 20 μM) was 1.32 ng/mL, the “IL-2 production [ng/ml] Average” value (CD8 T cells [1]; 20 μM) was 19.92 ng/mL and the “TNF-alpha production [ng/ml] Average” value (CD8 T cells [1]; 20 μM) was 7.13 ng/mL. For the same molecule, the “production of IL-2, IFN-gamma and TNF-alpha, CD25 expression and T cell proliferation” value (CD8 T cells [1]; anti-CD3 and anti-CD28) was “strongly enhanced”.
For `Cl.N[C@H]1CS(=O)(=O)c2cc(F)c(C(=O)NCCCC(F)(F)F)cc2N(Cc2ccc(Cl)cc2)C1=O` [Example 70, (3R)-3-amino-5-[(4-chlorophenyl)methyl]-8-fluoro-1,1,4-trioxo-N-(4,4,4-trifluoro-butyl)-2,3,4,5-tetrahydro-1λ^6,5-benzothiazepine-7-carboxamide hydrochloride], the EC50 (CD8 T cells [2]) was less than 1580 nM, the “Proliferated OT-II cells, average” value (OT-II cells; 1 mg/kg) was 18.70 % gated and the “CD69+ cells, B cells of recipient animal” value (OT-II cells; 10 mg/kg) was 8.62 % gated. For the same molecule, the “CD69+ cells, CD8 T cells of recipient animal” value (OT-II cells; 10 mg/kg) was 7.08 % gated, the “CD69+ cells, WT CD4 T cells of recipient animal” value (OT-II cells; 10 mg/kg) was 12.26 % gated and the “CD69+ cells, transferred OT-II cells” value (OT-II cells; 10 mg/kg) was 59.47 % gated.
